The source of these data is patent US20260327224A1, “SUBSTITUTED PYRIDOTRIAZOLE COMPOUND, AND PREPARATION METHOD THEREFOR AND USE THEREOF” (ORIGIANT PHARMACEUTICAL CO., LTD., priority 2023, published 2026).

Molecules are shown by their SMILES. A value given as a limit tells only on which side of the number the result lay.

What is called EC50 is the concentration needed to bring the measured effect to its halfway point.

For the experiment, the system named is HT-29 cells (colon cancer cells). As to the kind of experiment: In vitro assay for protection of HT-29 cells from necroptosis (TNFα/Smac mimetic/Z-VAD-FMK, CCK-8). It counts as cell-based. The note with it: Homo sapiens, Protective Activity Against Necroptosis, TNFα/Smac mimetic/Z-VAD-FMK induced, 24 h. An excerpt:
Z′=1−3(SDmin+SDmax)/(AVEmax−AVEmin) • wherein: • Min is the positive control Data, and Max is the negative control DMSO Data. • SD is the standard deviation, and AVE is the average. In Vitro Assay for Protection of HT-29 Cells from Necroptosis:
1) Experimental Materials
DMEM medium was purchased from Gibco; penicillin-streptomycin was purchased from Hyclone; TNFα was purchased from Peprotech; Smac mimetic and Z-VAD-FMK were purchased from Selleck; and CCK-8 was purchased from Medchem Express.
HT-29 cells (colon cancer cells) were cultured in DMEM+10% FBS+penicillin/streptomycin. For the experiment, HT-29 cells in the logarithmic phase were collected and seeded into 96-well plates at a specific density (typically 8×10^3 cells/well for adherent cells). The cells were cultured overnight in an incubator at 37° C. with 5% CO2. On the following day, the test compound was diluted with culture medium to the corresponding concentrations and added into the 96-well plate, with 3 replicate wells for each sample. A solvent control group and a blank control group containing only culture medium were set simultaneously. The spiked cells were induced with a combination of TNFα/Smac mimetic/Z-VAD-FMK for 24 h. Subsequently, 10 μL of CCK8 solution was added to each well, and the cells were incubated in an incubator for 1-3 h. Absorbance was measured at […] using a microplate reader, and the cell necrosis protection rate of the drug was calculated using the following formula:
Cell necrosis protection rate=[(X−C0)/(C−C0)]×100% • where C, C0, and X represent the average absorbance values of the solvent control group, the blank control group, and the drug treatment group, respectively. Finally, a cell viability curve was fitted using Graphpad Prism 5.0 software, and the EC50 value of the test compound for inhibiting necroptosis was calculated.
Consider `C[C@H](NC(=O)c1cn(C)c2ccc(-c3ccn4nc(NC(=O)CN5CC(O)CC5=O)nc4c3)cc12)c1ccc(F)cc1` (stereo in doubt) [Compound 3], for which the EC50 is 10 to 100 nM.
Next, `CC(=O)Nc1nc2cc(-c3ccc4c(c3)c(C(=O)NC3CCc5cc(F)ccc53)cn4C)ccn2n1` (stereo in doubt) [Compound 127]: 1000 to 10000 nM; `CC(C(=O)Nc1nc2cc(-c3ccc4c(c3)c(C(=O)N[C@@H](C)c3ccc(F)cc3)cn4C)ccn2n1)N1CC[C@H](O)C1` (some centres unmarked) [Compound 1]: 10 to 100 nM.
Take `C[C@H](NC(=O)c1cn(C)c2ccc(-c3ccn4nc(NC(=O)CN5CCC(O)(O)CC5)nc4c3)cc12)c1ccc(F)cc1` [Compound 5]: the EC50 is less than 1 nM.
Next, `C[C@H](NC(=O)c1cn(C)c2ccc(-c3ccn4nc(NC(=O)CN5CCC(O)CC5)nc4c3)cc12)c1ccc(F)cc1` [Compound 6]: less than 1 nM.
For the compound `C[C@H](NC(=O)c1cn(C)c2ccc(-c3ccn4nc(NC(=O)CN5CCC[C@H](O)C5)nc4c3)cc12)c1ccc(F)cc1` [Compound 7], the EC50 was less than 1 nM.
Next, `CCn1cc(C(=O)N[C@@H](C)c2ccc(F)cc2)c2cc(-c3ccn4nc(NC(=O)CN5CCOCC5)nc4c3)ccc21` [Compound 8]: less than 1 nM; `C[C@H](NC(=O)c1cn(C)c2ccc(-c3ccn4nc(NC(=O)C(=O)N5CCOCC5)nc4c3)cc12)c1ccc(F)cc1` [Compound 9]: less than 1 nM; `CCOC(=O)C(=O)Nc1nc2cc(-c3ccc4c(c3)c(C(=O)N[C@@H](C)c3ccc(F)cc3)cn4C)ccn2n1` [Compound 10]: 1 to 10 nM.
For the compound `C[C@H](NC(=O)c1cn(C)c2ccc(-c3ccn4nc(NC(=O)C(N)=O)nc4c3)cc12)c1ccc(F)cc1` [Compound 11], the EC50 was 1 to 10 nM.
Next, `C[C@H](NC(=O)c1cn(C)c2ccc(-c3ccn4nc(NC(=O)CN5CC[C@@H](O)C5)nc4c3)cc12)c1ccc(F)cc1` [Compound 12]: less than 1 nM; `C[C@H](NC(=O)c1cn(C)c2ccc(-c3ccn4nc(NC(=O)CC5CCCCC5)nc4c3)cc12)c1ccc(F)cc1` [Compound 13]: less than 1 nM; `C[C@H](NC(=O)c1cn(C)c2ccc(-c3ccn4nc(NC(=O)[C@@H]5CCC(=O)N5)nc4c3)cc12)c1ccc(F)cc1` [Compound 14]: less than 1 nM.
Next, `C[C@H](NC(=O)c1cn(C)c2ccc(-c3ccn4nc(NC(=O)CN5CCOCC5=O)nc4c3)cc12)c1ccc(F)cc1` [Compound 16]: 10 to 100 nM; `CCOC(=O)Nc1nc2cc(-c3ccc4c(c3)c(C(=O)N[C@@H](C)c3ccc(F)cc3)cn4C)ccn2n1` [Compound 17]: less than 1 nM; `C[C@H](NC(=O)c1cn(C)c2ccc(-c3ccn4nc(NC(=O)CN5CCOC(C)(C)C5)nc4c3)cc12)c1ccc(F)cc1` [Compound 18]: less than 1 nM.
Next, `COC1CCN(CC(=O)Nc2nc3cc(-c4ccc5c(c4)c(C(=O)N[C@@H](C)c4ccc(F)cc4)cn5C)ccn3n2)C1` (some centres unmarked) [Compound 19]: less than 1 nM; `C[C@H](NC(=O)c1cn(C)c2ccc(-c3ccn4nc(NC(=O)CN5CC[C@@H](F)C5)nc4c3)cc12)c1ccc(F)cc1` [Compound 20]: less than 1 nM; `C[C@H](NC(=O)c1cn(C)c2ccc(-c3ccn4nc(NC(=O)CN5CC[C@H](F)C5)nc4c3)cc12)c1ccc(F)cc1` [Compound 21]: less than 1 nM.
On to `C[C@H](NC(=O)c1cn(C)c2ccc(-c3ccn4nc(NC(=O)CN5CCCO5)nc4c3)cc12)c1ccc(F)cc1` [Compound 22], for which the EC50 was 1 to 10 nM.
For `C[C@H](NC(=O)c1cn(C)c2ccc(-c3ccn4nc(NC(=O)CN5CCC(C#N)CC5)nc4c3)cc12)c1ccc(F)cc1` [Compound 23], the EC50 was less than 1 nM.
As for `COC1CCN(CC(=O)Nc2nc3cc(-c4ccc5c(c4)c(C(=O)N[C@@H](C)c4ccc(F)cc4)cn5C)ccn3n2)CC1` [Compound 24], the half-maximal effective concentration (EC50) is less than 1 nM.
`COCCOCCOCC(=O)Nc1nc2cc(-c3ccc4c(c3)c(C(=O)N[C@@H](C)c3ccc(F)cc3)cn4C)ccn2n1` [Compound 25]: the EC50 was less than 1 nM.
